How the values were obtained:
[1] = Microsomal stability assay; type: in vitro ADME; settings: pH 7.4; mouse liver microsomes, 37° C.
Protocol: Microsomal Stability Assay
In vitro assays were performed to evaluate the metabolic stability of test items in liver microsomes originating from mouse. Preparation of working standards of test items: Working solutions were prepared for each calibration level by appropriate dilution of the corresponding stock solution, depending on each compound's solubility in acetonitrile or acetonitrile/water. Calibration standards were prepared by spiking 196 μl standard matrix with 4 μl of the corresponding working solution. The standard matrix consists of 0.15 mg/ml of microsomal protein in phosphate buffer (100 mM pH 7.4), the final standard solutions contain 2% acetonitrile. The samples and standard solutions were extracted with ethyl acetate, isolation of the compounds was performed by addition of 600 μl ethyl acetate containing the internal standard (0.1 μM) to 200 μl sample and calibration standard. After vigorously shaking (10 minutes) and centrifugation (5000 g) the aqueous phase was separated by freezing in an acetone/dry ice bath and the organic phase is evaporated to dryness using a vacuum centrifuge. Samples were reconstituted in 200 μl acetonitrile/water mix (1:1 v/v) and subsequently subjected to LC-MS/MS. The incubation solution (180 μl) consisted of 90 μl of a microsomal suspension of 0.33 mg/ml of protein in phosphate buffer 100 mM pH 7.4 and 90 μl NADP-regenerating system. The reaction was initiated by the addition of 20 μl of test compound (in 20% acetonitrile) to the preincubated microsomes/buffer mix at 37° C. 200 μl samples were removed from the incubation after 0, 5, 10, and 30 minutes and processed for ethyl acetate extraction as described above. Negative controls using boiled microsomes (boiling water bath, 25 minutes) without regenerating system were run in parallel. The amount of compound in the samples is expressed as percentage of remaining compound compared to time point zero (=100%). These percentages were plotted against the corresponding time points. Intrinsic clearance (CLint) and half-life (t1/2) estimates were determined using the rate of parent disappearance and following formula (1) and (2). (1) CLint=(−k)×V×fu. (2) t1/2=ln 2/−k. Where CLint=intrinsic clearance [μl/min/mg protein], t1/2=half life [min], k=slope from the linear regression of log [test compound] versus time plot [1/min]. V=6666.7; fu=unbound fraction in the blood. Applying this protocol gave microsomal stabilities for examples and reference compounds as listed below in Table 6: […]

PAMPA permeability assay = type: in vitro ADME; settings: % of compound found in the receiver compartment after 16 hours; PBS pH 7.4, 5% DMSO, 23° C.
Protocol: Artificial membrane permeability was determined as follows: Tested compounds were dissolved to 10 mM in 100% DMSO. Permeability of compounds was measured in PBS (pH 7.4), 5% DMSO at 23° C. Safire (Tecan) plate reader was used for measurement the UV/Vis absorption. Protocol: Dilute stocks of tested compounds and controls with PBS to 1.67 mM and mix well by pipetting, add 280 μl of PBS, 5% DMSO to acceptor plate, add 5 μl of 2% L-α-Phosphatidylcholine suspension in dodecane to the membrane of donor plate. Immediately add 98 μl of PBS to donor plate and make the sandwich with acceptor plate. Add 42 μl of tested compounds and controls dilutions to […], cover the plate, place into camera and incubate for 16 hours. Make the equilibrium plate, add 225 μl of PBS, 3.7% DMSO and 25 μl of tested compounds and controls dilutions to UV plate. After 16 hours pull the donor plate out and transfer 250 μl from acceptor plate to UV plate. Scan UV plate on Safire (Tecan) plate reader from […]. Permeability is reported in % of compound found in the receiver compartment after the incubation period. Applying this protocol, PAMPA permeabilities of examples and reference compounds were determined as follows (see Table 4): […]

Compound	half-life [1] [min]	microsomal CLint [1] [µL/min/mg]	melting point [°C]	PAMPA Permeability (PAMPA permeability assay) [%]
Cc1cc(OCc2c(-c3c(Cl)cccc3Cl)noc2C(C)C)cnc1Oc1ccc(C(=O)O)cc1 [Example 3, 4-(5-((3-(2,6-Dichlorophenyl)-5-isopropylisoxazol-4-yl)methoxy)-3-methylpyridin-2-yloxy)benzoic acid]	30	153	74 to 76	–
CC(C)c1onc(-c2c(Cl)cccc2Cl)c1COc1ccc(Oc2ccc(C(=O)O)cc2)cc1 [Compound A, reference compound]	22	207	–	32
